From EP3015165A1, “MATERIAL AND METHOD FOR CAPTURING, DETECTING AND Q[…] SULPHUR COMPOUNDS” (priority 2014, dated 2016)
In brackets after ≈: the same amount, converted by molar mass.

Experiments:
[1] = [gas]/[liq], grandeur sans dimension; cited from earlier work
[2] = couples H2S/HS^- et CH3SH/CH3S^-; cited from earlier work
[3] = cited from earlier work
[4] = Solubility limit in ethanol; type: physicochemical; conditions: organic solvent or mixture, éthanol, read-out: limite de solubilité dans l'éthanol
Experimental: Le TMOS et l'éthanol sont mélangés dans un premier temps. Puis le volume désiré de DMPD à 0,5 M dans l'eau est introduit, suivi du volume désiré de FeCl3 à 0,5 M dans 0,267 M HCl. La quantité d'eau restante pour atteindre 1,44 mL suit l'ajout d'HCl provoquant un échauffement du sol qui est agité le temps de refroidir. Pour les formulations fortement dopées en DMPD, il est nécessaire de dissoudre la DMPD dans l'éthanol plutôt que dans l'eau. La limite de solubilité de la DMPD dans l'éthanol est de 21 mM.

[5] = Kinetics of the probe-target reaction in aqueous solution at neutral pH; conditions: pH=7,4, target 50 µM and DTNB 5 µM (Figure 2A)
Experimental: (§1) Or, en milieu acide, les VSC modèles, à savoir le sulfure d'hydrogène et le méthanethiol, sont peu solubles. La présente étude a donc été menée en solution à pH neutre et, par conséquent sur les formes déprotonées Na2S et (CH3)SNa des deux VSC modèles.
Cette étude a montré que la cinétique de la réaction est suffisamment rapide pour envisager de l'employer dans un xérogel comme réaction de transduction : en moins de 5 min, l'équilibre est atteint (Figure 2A). On peut remarquer également que la réaction de détection du (CH3)SNa est moins rapide que celle de Na2S, avec en outre un moins bon rendement.

[6] = Stability of the probe in solution as a function of pH; type: physicochemical; conditions: milieu basique, from pH 9 the disulphide bridge breaks by itself in a few hours
Text: as §1

[7] = exposition prolongée à forte concentration; cited from earlier work

## CS [CH3SH, méthanethiol]
[1]
  constante de Henry Hcc: 1,23.10^-1
[2]
  pKa: 12,0
[3]
  solubilité dans l'eau: 0,48 mol.L^-1

## CN(C)c1ccc(N)cc1 [DMPD, N,N-diméthylparaphénylènediamine]
[4]
  solubility: 21 mM (≈ 2860 µg/mL)

## O=C(O)c1cc(SSc2ccc([N+](=O)[O-])c(C(=O)O)c2)ccc1[N+](=O)[O-] [DTNB, acide 5,5'-dithiobis(2-nitrobenzoïque)]
[5]
  time to reach equilibrium of the reaction: < 5 min
[6]
  stability in solution: n'est pas stable

## S [H2S, sulfure d'hydrogène]
[1]
  constante de Henry Hcc: 4,09.10^-1
[7]
  concentration causing paralysie du nerf olfactif: 100 à 150 ppm
[2]
  pKa: 7,0
